According to patent US20140371304A1, “METHOD FOR SUPPRESSING TUMORIGENICITY OF STEM CELLS” (SUCAMPO AG, priority 2013, published 2014):

Test system: C57/BL6 mouse embryonic stem cells
Test: Tumor formation in SCID-beige mice from mouse embryonic stem cells pre-treated with compound
Assay type: in vivo
Settings: for Weight of kidney capsule tumor, mean / Volume of kidney capsule tumor, (after harvesting) mean / Volume of kidney capsule tumor, (within mice) mean / Weight of testis tumor, mean / Volume of testis tumor, (after harvesting) mean / Volume of testis tumor, (within mice) mean: MES cells treated with 1 micromolar for total 120 hrs, 1×10^6 cells/site injected to Fox Chase SCID-beige mice, 3 weeks post injection; for Weight of kidney capsule tumor, mean / Weight of testis tumor, mean: after harvesting; for Volume of kidney capsule tumor, (after harvesting) mean / Volume of testis tumor, (after harvesting) mean: measured after harvesting; for Volume of kidney capsule tumor, (within mice) mean / Volume of testis tumor, (within mice) mean: measured before harvesting; for tumorigenic potential of mouse ES cells: conclusion in words; for tumorigenic potential of mouse ES cells / volume and weight of the tumor tissues in kidneys and testes: MES cells treated with 1 micromolar, injected to SCID-beige mice; for volume and weight of the tumor tissues in kidneys and testes: result in words
Protocol: ESGRO COMPLETE™ C57/BL6 mouse embryonic stem cells (MES, Millipore # SF-CMTI-2) were grown in 0.1% gelatin coated T75 culture flasks using ESGRO complete serum free clonal grade medium (Millipore # SF001-B) and ESGRO complete supplement (Millipore # SF012-250, containing selective GSK3β inhibitor). Cells were treated for 96 hrs with either 1 micromolar of Compound-1 ((−)-7-[(2R,4aR,5R,7aR)-2-(1,1-difluoropentyl)-2-hydroxy-6-oxooctahydrocyclopenta[b]pyran-5-yl]heptanoic acid), Compound-2 ((+)-isopropyl (Z)-7-[(1R,2R,3R,5S)-3,5-dihydroxy-2-(3-oxodecyl)cyclopentyl]hept-5-enoate) or vehicle (0.1% DMSO) until they reached 60% confluence. Drugs and media were changed daily. Cells were incubated in the presence of freshly added drug for 96 hrs, and then tested for mycoplasma over the next 24 hrs. Therefore, the cells were exposed to vehicle or Compound-1 or -2 for a total of 120 hrs. The cells were harvested and mixed with 30% matrigel. The mixture was injected to Fox Chase SCID-beige mice at 1×10^6 cells/site Tumors were collected after 3 weeks of post injection from kidney and testis. Tumor volumes were measured before and after harvesting from the mice. Tumor weight was also measured after harvesting from mice.

SMILES	Weight of kidney capsule tumor, mean	Volume of kidney capsule tumor, (after harvesting) mean	Volume of kidney capsule tumor, (within mice) mean	Weight of testis tumor, mean	Volume of testis tumor, (after harvesting) mean	Volume of testis tumor, (within mice) mean	tumorigenic potential of mouse ES cells	volume and weight of the tumor tissues in kidneys and testes
CCCCC(F)(F)[C@@]1(O)CC[C@H]2[C@@H](CC(=O)[C@@H]2CCCCCCC(=O)O)O1 [Compound-1, (−)-7-[(2R,4aR,5R,7aR)-2-(1,1-difluoropentyl)-2-hydroxy-6-oxooctahydrocyclopenta[b]pyran-5-yl]heptanoic acid]	1.40 g	2.10 cm^3	5.6 cm^3	1.87 g	3.70 cm^3	10.42 cm^3	greatly reduce	reduced
CCCCCCCC(=O)CC[C@@H]1[C@@H](C/C=C\CCCC(=O)OC(C)C)[C@@H](O)C[C@H]1O [Compound-2, (+)-isopropyl (Z)-7-[(1R,2R,3R,5S)-3,5-dihydroxy-2-(3-oxodecyl)cyclopentyl]hept-5-enoate]	2.13 g	5.44 cm^3	9.12 cm^3	1.33 g	2.68 cm^3	5.66 cm^3	greatly reduce	reduced
